Results: patent US5756537A (Parkash S. Gill, M.D., Inc., priority 1996, dated 1998)
Converted amounts (≈) assume the structure as drawn. “Also recorded” adds a separate entry of the source. Read-outs that look alike come from different tables or passages of the source.

Columns and labels:
[1] = tested on: Kaposi's sarcoma; test: Example 4: person with KS; format: in vivo, human
Text: Due to very extensive disease, a representative area of tumor was monitored.

[2] = tested on: Kaposi's sarcoma; test: Example 5: pilot study of ten patients; format: in vivo, human; conditions: 100 mg/m^2 over 3 hr every 2 weeks
Text: Seven of these ten patients had previously been treated with one or more previous regimens cytotoxic chemotherapy regimens. All were severely immunodeficient with history of opportunistic infection in six, advanced KS with numerous cutaneous KS lesions, involvement of visceral disease (which is generally fatal) in five.

[3] = tested on: Kaposi's sarcoma; test: Clinical results with paclitaxel in KS, overall
Experimental: The mode or route of administration can be parenteral: e.g., intravenous; intraperitoneal; subcutaneous; oral; or topical for cutaneous tumors.
All patients had advanced KS defined by more than 25 cutaneous lesions, or presence of visceral disease, or lymphedema. Other eligibility criteria included adequate hepatic, renal, and bone marrow function defined as a bilirubin<2.0 mg/dl, GOT<x upper limit of normal, creatinine<2.1 mg/dl, granulocytes>1000/mm^3, and platelets>75,000/mm^3. Patients could not have had prior therapy for their KS within the last 2 weeks. The dosage and schedule was 100 mg/m^2 intravenously every 2 weeks.

[4] = tested on: AIDS-KS
[5] = tested on: ovarian and breast cancer; conditions: cited from earlier work
[6] = tested on: AIDS-KS spindle cell lines, KS Y-1 P105; test: Cell proliferation assay (cell counting, day 5 or 6); format: cell-based
Experimental: FIG. 1. […] At that time surviving cells were assayed by cell counting.
AIDS-KS spindle cell lines were seeded at a density of 1.0×10^4 cells/well in a 24-well plate in KS medium. […] The cell counts were performed on day 5 or 6 using a Coulter Particulate Counter (Hialeah, Fla.).

[7] = tested on: bone marrow suppression; test: G-CSF use in the clinical trial patients
[8] = tested on: bone marrow suppression; conditions: human, in vivo
[9] = tested on: Kaposi's sarcoma; test: Example 3: HIV-negative person with KS; format: in vivo, human
Text: Patient, a very fragile person presented with KS. […] Other medical problems included hypertension, cardiac arrhythmia, congestive heart failure, and hypothyroidism.
Prior therapy included radiation therapy. The radiated areas included both feet and eye lids. […] Cytotoxic chemotherapy was given with combination chemotherapy consisting of bleomycin, vincristine and adriamycin.
Premedication included dexamethasone, diphenhydramine, and cimetidine.

[10] = tested on: AIDS-KS; test: Phase II trial, strata 2 (no prior systemic chemotherapy); format: in vivo, human; conditions: 100 mg/m^2 iv every 2 weeks
Text: Strata 2 of the study consisted of 20 patients with advanced AIDS-KS who had not received any prior systemic chemotherapy. The demographic characteristics and the results of treatment are provided below (Table 4-6).

[11] = tested on: KS Y-1 cells; test: In vivo KS tumor model in nude mice; parameters: species or system Balbc/nu mouse; conditions: 10 mg/kg intraperitoneally, days 1, 5 and 9; measured day 14 and 21
Experimental: FIG. 2. […] Tumor size was measured on days 14 and 21.
KS cell lines that propagate in the immunodeficient mouse were treated with paclitaxel. 1.0×10^7 cells were implanted subcutaneously in each Balbc/nu (Charles River) mouse.

[12] = tested on: Kaposi's sarcoma; conditions: […]^2 to 175 mg/m^2 over three hours, every 21 days; cited from earlier work
[13] = Paclitaxel peak levels, AUC and relation to effect and side effects in KS patients; conditions: human, blood, iv
Experimental: (§1) This area is calculated using the equation: [formula] where λi is the exponent of the i-th exponential term, and Ci is the initial concentration of the i-th component of the curve. Curve fitting with this model yields the parameters Ci, C2, C3 λ1, λ2 and λ3. The half-lives (t1/2 s) are calculated from the equations t1/2 (α)=0.693/λ1, t1/2 (β)=0.693/λ2 and t1/2 (γ)=0.693/λ3. The total area under the curve (AUC0→.infin.)) is calculated using the linear trapezoidal method with extrapolation of the terminal phase to infinity (Clast /λ3), where Clast is the last measured concentration.
(§2) Typically, maintenance therapy is maintained for a minimum of 3-5 cycles.

[14] = tested on: Kaposi's sarcoma; test: as above
Experimental: as §1, §2

[15] = 33 evaluable, 100 mg/m^2 iv every 2 weeks
[16] = of patients with no G-CSF prior to paclitaxel
[17] = 75 mg/m^2 every two weeks, three hour infusion

## CC(=O)O[C@H]1C(=O)[C@@]2(C)[C@H]([C@H](OC(=O)c3ccccc3)[C@]3(O)C[C@H](OC(=O)[C@H](O)[C@@H](NC(=O)c4ccccc4)c4ccccc4)C(C)=C1C3(C)C)[C@]1(OC(C)=O)CO[C@@H]1C[C@@H]2O [paclitaxel]
[1]; 35 mg/m^2 every 2 weeks
  KS lesions three months after initiation of the lower dose: completely flat (Clinical Complete Remission)
  tolerability: well tolerated, and their hair grew back while on therapy
[1]; 75 mg/m^2
  hair loss: severe hair loss
  response to the first dose: rapid response
[1]; after single dose of 75 mg/m^2, 32 lesions prior to paclitaxel
  lesion count on the left forearm: 12 lesions
[1]; after single dose of 75 mg/m^2, all 32 raised prior to therapy
  raised lesions on the left forearm: two
[2]
  patients with partial or complete response: five of the ten
  responses in patients who had previously failed chemotherapy: Responses were observed
  responses in patients with otherwise fatal pulmonary disease: Responses were also observed
  tolerability: well tolerated
  tumor associated edema: resolution of tumor associated edema was observed
[3]; 100 mg/m^2 every 2 weeks
  effectiveness in KS versus other tumors: more effective therapeutically to KS compared to any other tumor studied thus far in the clinic
  tolerability: extremely well tolerated
[3]; 35-100 mg/m^2 every 10-16 days
  median duration of response: greater than 20 weeks
  median time to achieve partial response: 6-10 weeks
  median time to achieve partial response (cycles): 3-5 cycles
[3]; aside from mild to moderate hair loss and occasional other mild toxicities
  side effects: the lack of side effects is extraordinary
[3]; compared to all previously studied drugs and combinations
  duration of response as reflected by the median number of cycles tolerated, versus all previously studied drugs: two fold longer
[3]; up to
  duration of response, range: up to 60 weeks
[4]; 100 mg/m^2 iv every 2 weeks
  Cycles to response, range: 3-9 cycles
  Median cycles to response: 5 cycles
  median duration of response: ≥ 5 months
[4]; [15]
  Complete response (count): 0
  Minimal response/stable disease (count): 12
  Minimal response/stable disease (percent): 34%
  Partial response (count): 23
  Partial response (percent): 66%
  Progression (count): 0
[4]; not reached
  Median Survival: > 6 months
[4]; preliminary results
  activity in patients with prior systemic chemotherapy: confirmed
[5]; 3-96 hour infusion, every 3-4 weeks
  dose generally required to obtain responses: 175-200 mg/m^2
[5]; Wiernak, et al.
  threshold peak level necessary for pharmaceutical effect: 0.1 µM
[6]; P1(0.5), KS Y-1 P105, treated day 1 and 3, counted day 5 or 6
  IC50: 2 to 3 ng/mL (≈ 2.34 to 3.51 nM)
[6]; in vitro
  sensitivity of KS cells to paclitaxel in vitro: as sensitive to paclitaxel as human ovarian cell lines; also recorded: unusual sensitivity
[7]; n = 43
  Any G-CSF use (fraction): 30/43
[7]; [16]
  Never required G-CSF (fraction): 13/27
  Required G-CSF after start of paclitaxel therapy (fraction): 14/27
[7]; patients who did not require G-CSF
  bone marrow suppression (including neutropenia): not observed
[8]
  Any G-CSF use (percent): 69%
  Never required G-CSF (percent): 48%
  patients who did not require G-CSF: approximately 50%
[9]; 35 mg/m^2, after relapse
  disease status after one cycle: stable
[9]; 75 mg/m^2 every two weeks
  number of doses to complete tumor resolution: five
  period to complete tumor resolution: eight
[9]; [17]
  response: remarkable response with resolution of KS, oozing, foul smell and edema
  toxicities experienced: skin itching and moderate hair loss
[9]; 75 mg/m^2 every two weeks, three hour infusion, no G-CSF
  bone marrow suppression and neutropenia: lack of bone marrow suppression and accompanying neutropenia
[9]; after 75 mg/m^2 every two weeks
  biopsy of the area of skin tumor: lack of KS pathologically
[9]; paclitaxel alone and in combination with liposomally encapsulated doxorubicin for five months
  remission after the last combination chemotherapy treatment: eight
[10]
  Cycles to response, range: 3-9 cycles
  Median cycles to response: 3 cycles
[10]; 19 evaluable
  Complete response (count): 1
  Complete response (percent): 5%
  Minimal response/stable disease (count): 6
  Minimal response/stable disease (percent): 32%
  Partial response (count): 12
  Partial response (percent): 63%
  Progression (count): 0
[10]; n = 20
  Anemia, Grade 2 (count): 6
  Anemia, Grade 2 (percent): 30%
  Anemia, Grade 3 (count): 0
  Anemia, Grade 4 (count): 0
  Diarrhea, Grade 3: 0
  Diarrhea, Grade 4: 0
  Fevers, Grade 3: 1
  Fevers, Grade 4: 0
  Myalgia, Grade 3: 0
  Nausea/Vomiting, Grade 1/2: 8
  Neuropathy, Grade 3: 0
  Neuropathy, Grade 4: 0
  Neutropenia, Grade 2 (count): 4
  Neutropenia, Grade 2 (percent): 20%
  Neutropenia, Grade 3 (count): 2
  Neutropenia, Grade 3 (percent): 10%
  Neutropenia, Grade 4 (count): 3
  Neutropenia, Grade 4 (percent): 15%
  Rash ± Pruritus, Grade 1/2: 9
  Rash ± Pruritus, Grade 3: 0
  Thrombocytopenia, Grade 2 (count): 0
  Thrombocytopenia, Grade 3 (count): 0
  Thrombocytopenia, Grade 4 (count): 0
[11]
  tumor growth: markedly inhibited
[12]
  myelosuppression: increased incidents of myelosuppression
[13]
  Cmax: 100 to 1000 nM
[14]; 50-100 mg/m^2, three hour bolus, would be expected
  length of time peak levels are achieved: less than 15 hours
[14]; AUC 1-4 μM/hour, three hour bolus of 50-100 mg/m^2 every 14 days
  myelosuppression: not observed
[14]; peak levels maintained at 15 hours or less
  unwanted hematological and non-hematological side effects: absent
[14]; threshold level 0.1-1 μM for shorter periods, AUC 1-4 μM/hour
  neutropenia and other side effects: reduce neutropenia and other side effects

## bleomycin
[9]; combination chemotherapy of bleomycin, vincristine and adriamycin
  pneumonitis: pneumonitis with bilateral diffuse infiltration
